Patent US20170202932A1, “METHODS FOR INHIBITING NEURON APOPTOSIS AND NECROSIS” (NEWSOUTH INNOVATIONS PTY LIMITED, priority 2012, published 2017)

Molecular target: T1, Purkinje cell TRPC3 channels (Mus musculus, UniProt Q9QZC1, DEL811-838)
T1 construct: from tissue; host or cells: parasagittal cerebellar brain slices, C129-SvEv mice, Purkinje neurons
T1 sequence (Q9QZC1 with tags, fused parts or gaps DEL811-838): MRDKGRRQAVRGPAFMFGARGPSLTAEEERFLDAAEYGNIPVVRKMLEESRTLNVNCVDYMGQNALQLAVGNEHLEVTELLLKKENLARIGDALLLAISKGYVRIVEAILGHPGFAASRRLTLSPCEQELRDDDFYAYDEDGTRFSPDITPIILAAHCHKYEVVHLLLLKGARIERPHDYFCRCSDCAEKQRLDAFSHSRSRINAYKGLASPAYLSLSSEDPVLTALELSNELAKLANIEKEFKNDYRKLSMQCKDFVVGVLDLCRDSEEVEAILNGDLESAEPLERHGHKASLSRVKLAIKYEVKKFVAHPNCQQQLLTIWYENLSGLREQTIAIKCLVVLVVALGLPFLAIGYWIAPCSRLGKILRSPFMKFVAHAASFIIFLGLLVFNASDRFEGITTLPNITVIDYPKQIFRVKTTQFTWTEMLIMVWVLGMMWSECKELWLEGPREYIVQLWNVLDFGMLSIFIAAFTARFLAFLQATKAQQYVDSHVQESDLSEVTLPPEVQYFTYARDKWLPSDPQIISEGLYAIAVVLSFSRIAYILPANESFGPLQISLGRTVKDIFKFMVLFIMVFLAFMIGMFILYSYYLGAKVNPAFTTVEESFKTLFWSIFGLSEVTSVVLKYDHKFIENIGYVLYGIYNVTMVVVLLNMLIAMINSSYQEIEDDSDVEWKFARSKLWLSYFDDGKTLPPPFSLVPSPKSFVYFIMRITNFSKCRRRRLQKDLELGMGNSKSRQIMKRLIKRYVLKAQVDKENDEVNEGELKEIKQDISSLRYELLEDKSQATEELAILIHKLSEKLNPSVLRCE
Test: Whole-cell voltage clamp of DHPG-evoked inward current in Purkinje cells of cerebellar brain slices
Type: cell-based
Experimental: TRPC3c-mediated current in cerebellar Purkinje cells was then assessed. Parasagittal cerebellar brain slices (400 μm) were prepared using standard techniques (Power and Sah, (2007) J. Physiol. 580:835-57). Mice (C129-SvEv strain, 4-8 weeks old) were anaesthetized with pentobarbital and decapitated. The brain was removed and submerged in an ice cold modified artificial cerebral spinal fluid (ACSF) solution containing 119 mM NaCl, 2.5 mM KCl, 3.3 mM MgCl2, 0.5 mM CaCl2, 1.0 mM Na2PO4, 26.2 mM NaHCO3, 11 mM glucose, equilibrated with 95% CO2, 5% 02. Slices were cut with a VT1200 vibratome (Leica, Germany) and were allowed to recover for at least 1 h at room temperature in a standard ACSF solution containing 119 mM NaCl, 2.5 mM KCl, 1.3 mM MgCl2, 2.5 mM CaCl2, 1.0 mM Na2PO4, 26.2 mM NaHCO3, 11 mM glucose, equilibrated with 95% CO2, 5% O2.
For recording, slices were transferred to the stage of a Zeiss Examiner D1 microscope and continuously perfused with ACSF heated to 30° C. Whole-cell patch-clamp recordings were made from the soma of Purkinje neurons identified using infrared differential interference contrast videomicroscopy. Patch pipettes (3-5 MΩ) were filled with an internal solution containing 135 mM Cesium methanesulfonate, 8 mM NaCl, 10 mM HEPES, 2 mM Mg2ATP, 0.3 mM Na3GTP, 0.1 spermine (pH 7.3 with KOH, osmolarity 290-300 mosmol l^−1). Alexa 594 (30 μM; Invitrogen, U.S.A.) was added to the internal solution to visualise the dendritic tree. Whole-cell currents at a holding potential of −70 mV were amplified with an Axopatch 2B amplifier (Molecular Devices, U.S.A.), filtered at 5 kHz and digitized at 20 kHz with a Digidata1440 (Molecular Devices), and controlled using pClamp 10.2 Software (Molecular Devices). Whole-field fluorescence measurements were made with a 40× water immersion objective (NA 1.0; Zeiss, Germany) using a F43 filter block; excitation 545/25 nm; dichroic 570 nm, emission 605/70 nm. Images were acquired with a cooled CCD camera (ProgRes MF-Cool, Jenoptik, Germany) DHPG (50 μM) was applied onto the dendritic field by focal pressure application (in ACSF) through a patch pipette.

- peak of the DHPG-evoked current (15 min after genistein 100 μM, before genistein −400±55 pA): −77±50 pA
- integrated area of the DHPG-evoked current (net charge) (after genistein 100 μM, before genistein −878±11 pC): −74±105 pC
- time over which block of the current was produced (genistein 100 μM bath application): 10 to 15 min
- reduction of DHPG-evoked Purkinje cell inward current (genistein 100 μM, DHPG 50 μM, holding −70 mV, n=3): 90±12%
SMILES: O=c1c(-c2ccc(O)cc2)coc2cc(O)cc(O)c12 [genistein, 4′, 5,7-trihydroxyisoflavone]
